From paper PMC7828111, “In Search for Multi-Target Ligands as Potential Agents for Diabetes Mellitus and Its Complications—A Structure-Activity Relationship Study on Inhibitors of Aldose Reductase and Protein Tyrosine Phosphatase 1B” (Molecules, 2021)
Like-named read-outs stand apart in the source and are kept apart here.

Tests used:
human recombinant PTP1B [1] = target: T1, human recombinant PTP1B (Homo sapiens, UniProt P18031); parameters: method as in PMID 30342956; conditions: reversible inhibitors; cited from earlier work
T1 sequence (P18031 1-435): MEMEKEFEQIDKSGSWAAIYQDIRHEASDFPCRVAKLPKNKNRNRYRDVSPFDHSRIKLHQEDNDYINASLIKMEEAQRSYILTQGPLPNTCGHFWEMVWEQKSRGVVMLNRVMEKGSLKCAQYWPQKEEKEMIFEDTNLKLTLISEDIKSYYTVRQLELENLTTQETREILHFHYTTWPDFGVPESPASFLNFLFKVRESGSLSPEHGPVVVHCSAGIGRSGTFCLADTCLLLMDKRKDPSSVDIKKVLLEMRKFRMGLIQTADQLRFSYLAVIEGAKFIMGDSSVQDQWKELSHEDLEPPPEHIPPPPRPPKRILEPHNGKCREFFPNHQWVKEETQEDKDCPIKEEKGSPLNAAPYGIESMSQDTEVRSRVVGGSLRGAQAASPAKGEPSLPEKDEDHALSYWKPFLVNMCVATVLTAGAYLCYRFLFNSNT

human recombinant AR [2] = target: T2, human recombinant AR (Homo sapiens, UniProt P15121); parameters: method as in PMID 30342956; conditions: reversible inhibitors; cited from earlier work
T2 construct: made in house; host or cells: E. coli BL21(DE3)pLysS

human recombinant AR [3] = target: T2, human recombinant AR; assay: Reversibility of AR inhibition (dialysis); format: biochemical
Method: In order to evaluate the reversibility of the inhibitory action, 8 mU of purified AR were assayed in the presence of 5 μM of compounds 4a, 4e and 4f. In these conditions less than 15% of the enzyme activity was measured in the presence of 2 mM L-idose as substrate. The mixture was then extensively dialysed on Amicon ultrafiltration membrane (cut off 10 KDa) against 10 mM sodium phosphate buffer, pH 7.0. After dialysis, the enzyme activity was again measured as above and compared to that of a mixture in the absence of inhibitor and treated in the same conditions.

human recombinant AR [4] = target: T2, human recombinant AR; assay: Kinetic analysis of AR inhibition (Lineweaver-Burk and secondary plots); format: biochemical
Method: The kinetic analysis of compounds 4a, 4e and 4f was performed by measuring reaction rates with different L-idose concentrations s (S) in the absence and in the presence of different inhibitors concentrations. Data were analyzed by Linewever-Burk plots.

human recombinant PTP1B [5] = target: T1, human recombinant PTP1B; assay: Kinetic analysis of PTP1B inhibition (Lineweaver-Burk plot); format: biochemical; conditions: pNPP as substrate
Method: Kinetic analyses were carried out to dissect action mechanism of compound 4e and 4f. Briefly, the main kinetic parameters, Km and Vmax, were calculated measuring the initial hydrolysis rate of PTP1B in the presence of increasing pNPP concentration (seven different concentrations in the 0.5–25 mM range). All assays were carried out in duplicate. Data obtained were fitted using the Michaelis-Menten equation. To evaluate the action mechanism of inhibitors, we studied the dependence of Km and Vmax from inhibitors concentration, using three different inhibitor concentrations, at least. Data obtained were then analysed by double reciprocal plot (Lineweaver-Burk plot).

human recombinant PTP1B [6] = target: T1, human recombinant PTP1B; assay: Reversibility assay (dilution test) with PTP1B; format: biochemical; conditions: saturating inhibitor, 60 min 37 °C, diluted 400 folds
Method: An aliquot of the enzyme was incubated for 60 min at 37 °C in the presence of saturating amount of PTP1B inhibitor. After this time, an aliquot of the enzyme was withdrawn and diluted 400 folds in the assay buffer containing 2.5 mM of pNPP. After 15 min, the reaction was stopped by adding 1 mL of KOH 0.2 M. The amount of pNP released was calculating measuring the absorbance at 400 nm of solutions using a spectrophotometer. Data obtained were normalized respect to control tests, which was carried out diluting the enzyme with DMSO, the solvent used to dissolve all compounds. Data reported in the figure represent the mean value +/− S.E.M. (n = 3).

human recombinant PTP1B [7] = target: T1, human recombinant PTP1B; assay: Inhibition of human recombinant PTP1B, p-nitrophenyl phosphate as substrate; format: biochemical; conditions: human recombinant PTP1B, pNPP as substrate; mean ± S.E.M
Method: PTP1B activity was determined as follow. […] After an appropriate interval time, the reaction was stopped diluting assay solution with 2 mL of KOH 0.1 M. The amount of p-nitrophenol released was determined measuring the absorbance of the solution at 400 nm using a spectrophotometer and a 1-cm optical pathlength (εmM of p-nitrophenol is 18). The IC50 value was determined measuring the pNPP hydrolysis rate in the presence of increasing inhibitor concentration. For each inhibitor, 15–16 different concentrations were used. All tests were carried out in triplicate and data obtained were normalized respect to control sample.

human recombinant AR [8] = target: T2, human recombinant AR; assay: Inhibition of human recombinant AR, L-idose as substrate (NADPH oxidation at 340 nm); format: biochemical; conditions: human recombinant AR, 2 mM L-idose as substrate; mean ± S.E.M
Method: The human recombinant AR was expressed in BL21(DE3)pLysS E. coli cells and purified to electrophoretic homogeneity as previously described. The purified enzyme (specific activity 5.0 U/mg) was stored at −80 °C in 10 mM sodium phosphate buffer pH 7.0 containing 2 mM dithiothreitol and 30% (w/v) glycerol. AR activity was determined at 37 °C as previously described evaluating the decrease in absorbance at 340 nm linked to NADPH oxidation. […] One unit of enzyme activity is the amount that catalyzes the conversion of 1 μmol of substrate/min in the above assay conditions.
All compounds tested as aldose reductase inhibitors were dissolved in DMSO and added to the assay mixture containing 8 mU of purified AR. The reaction was started by addition of the substrate. The DMSO concentration in all the assays was kept constant at 0.5% (v/v) in order to avoid effects on AR activity.
The IC50 values were determined by nonlinear regression analysis using Prism GraphPad 6.0 fitting experimental data to the following equation:(1) vi/v0= Max−Min/1+( I/IC50)^slope +Min
In the equation, vi/v0, represents the ratio between the activity measured in the presence of the inhibitor and the activity measured in the absence of inhibitor; Max and Min represent the expected maximal and minimal value of the activity and were fixed at 1 and zero, respectively. Slope, which describes the steepness of curve in the transition region, was fixed at −1. For each compound, at least five different concentrations of inhibitor in the triplicate assay were analyzed.

SMILES	Mechanism of PTP1B inhibition (human recombinant PTP1B [1])	Mechanism of AR inhibition (human recombinant AR [2])	AR enzyme activity recovered after removal of the inhibitor upon extensive dialysis (human recombinant AR [3]; 5 μM compound before dialysis)	AR enzyme activity measured in the presence of compound (human recombinant AR [3]; 5 μM compound, 2 mM L-idose, before dialysis)	melting point	AR Ki relative to K′i (human recombinant AR [4]; Ki higher than K′i)	AR K′i (apparent dissociation constant, EIS complex) (human recombinant AR [4]; L-idose as substrate)	Mechanism of AR inhibition (human recombinant AR [4]; L-idose as substrate)	Ki (human recombinant AR [4]; L-idose as substrate, read-out: AR Ki (apparent dissociation constant))	Mechanism of PTP1B inhibition (human recombinant PTP1B [5])	PTP1B K′i (apparent dissociation constant, EIS complex) (human recombinant PTP1B [5])	Ki (human recombinant PTP1B [5]; read-out: PTP1B Ki (apparent dissociation constant))	Reversibility of PTP1B inhibition (human recombinant PTP1B [6])	IC50 (human recombinant PTP1B [7])	IC50 (human recombinant AR [8])
O=C(O)CN1C(=O)/C(=C/c2cccc(OCCc3ccccc3)c2)SC1=S [2e, (4-oxo-5-{[3-(2-phenylethoxy)pheny]lmethylidene}-2-thioxothiazolidin-3-yl)acetic acid]	non-competitive	uncompetitive	–	–	–	–	–	–	–	–	–	–	–	–	–
O=C(O)CCN1C(=O)/C(=C/c2cccc(OCCc3ccccc3)c2)SC1=S [4e, 3-[(5Z)-4-Oxo-{5-[3-(2-phenylethoxy)phenyl]methylidene}-2-thioxothiazolidin-3-yl]propanoic acid]	–	–	more than 90%	less than 15%	136 to 138 °C	at least ten-fold higher	0.66 ± 0.30 µM	uncompetitive inhibitors	> 8000 nM	competitive inhibitor	>12 µM	2200 ± 300 nM	reversible inhibitors	55500 ± 800 nM	2300 ± 100 nM
O=C(O)CN1C(=O)S/C(=C\c2cccc(OCCc3ccccc3)c2)C1=O [1e]	non-competitive	uncompetitive	–	–	–	–	–	–	–	–	–	–	–	–	–
